Experimental data taken from ChEMBL document CHEMBL4229336, “Identification of (1S,4S)-2,5-diazabicyclo[2.2.1]heptane-dithiocarbamate-nitrostyrene hybrid as potent antiproliferative and apoptotic inducing agent against cervical cancer cell lines” (Eur J Med Chem, 2018).
Calls of active or inactive are those of the source. The calls are words filed in the database; no cut-off is given here.

Experiments:
[1] = (§1) Antiproliferative activity against human ViBo cells after 24 hrs by crystal violet staining-based assay; type: functional, cell-based
Homo sapiens [2] = organism: Homo sapiens; experiment: as §1; type: functional, cell-based
HeLa [3] = experiment: Antiproliferative activity against human HeLa cells after 24 hrs by crystal violet staining-based assay; type: functional, cell-based
Ca-Ski [4] = experiment: Cytotoxicity against human CaSki cells assessed as induction of necrosis at antiproliferative IC50 after 24 hrs by LDH release assay relative to control; type: cell-based
[5] = Cytotoxicity against human ViBo cells assessed as induction of necrosis at antiproliferative IC50 after 24 hrs by LDH release assay relative to control; type: cell-based
HeLa [6] = experiment: Cytotoxicity against human HeLa cells assessed as induction of necrosis at antiproliferative IC50 after 24 hrs by LDH release assay relative to control; type: cell-based
Ca-Ski [7] = experiment: Antiproliferative activity against human CaSki cells after 24 hrs by crystal violet staining-based assay; type: functional, cell-based
Ca-Ski [8] = experiment: Induction of apoptosis in human CaSki cells assessed as caspase3 activity at antiproliferative IC50 after 24 hrs by FITC staining-based FACS analysis (reference value: 5%); type: functional
HeLa [9] = experiment: Induction of apoptosis in human HeLa cells assessed as caspase3 activity at antiproliferative IC50 after 24 hrs by FITC staining-based FACS analysis (reference value: 3%); type: functional
[10] = Induction of apoptosis in human ViBo cells assessed as caspase3 activity at antiproliferative IC50 after 24 hrs by FITC staining-based FACS analysis (reference value: 5%); type: functional
Lymphocyte [11] = experiment: Cytotoxicity in enriched human lymphocytes assessed as induction of necrosis by measuring LDH release at 2.36 uM after 72 hrs by LDH release assay; type: cell-based
Lymphocyte [12] = experiment: Induction of cell proliferation of enriched human lymphocytes assessed as cell proliferation level at 0.99 uM after 72 hrs by CFSE staining-based flow cytometric analysis (reference value: 73.36%)
Lymphocyte [13] = experiment: Induction of cell proliferation of enriched human lymphocytes assessed as cell proliferation level at 0.73 uM after 72 hrs by CFSE staining-based flow cytometric analysis (reference value: 73.36%)
[14] = Cell cycle analysis in human ViBo cells assessed as accumulation of cells at G2/M phase at antiproliferative IC50 after 24 hrs by propidium iodide staining-based flow cytometric analysis (reference value: 16.20%); type: functional
Ca-Ski [15] = experiment: Cell cycle analysis in human CaSki cells assessed as accumulation of cells at G1 phase at antiproliferative IC50 after 24 hrs by propidium iodide staining-based flow cytometric analysis (reference value: 69.31%); type: functional
[16] = Cell cycle analysis in human ViBo cells assessed as accumulation of cells at G1 phase at antiproliferative IC50 after 24 hrs by propidium iodide staining-based flow cytometric analysis (reference value: 66.69%); type: functional
HeLa [17] = experiment: Cell cycle analysis in human HeLa cells assessed as accumulation of cells at G1 phase at antiproliferative IC50 after 24 hrs by propidium iodide staining-based flow cytometric analysis (reference value: 69.25%); type: functional
Lymphocyte [18] = experiment: Cytotoxicity in enriched human lymphocytes assessed as induction of necrosis by measuring LDH release at 0.99 uM after 72 hrs by LDH release assay; type: cell-based
Ca-Ski [19] = experiment: Cell cycle analysis in human CaSki cells assessed as accumulation of cells at S phase at antiproliferative IC50 after 24 hrs by propidium iodide staining-based flow cytometric analysis (reference value: 10.12%); type: functional
Ca-Ski [20] = experiment: Induction of apoptosis in human CaSki cells assessed as chromatin condensation at antiproliferative IC50 by DAPI staining-based epifluorescence microscopic analysis; type: functional, cell-based
Ca-Ski [21] = experiment: Cell cycle analysis in human CaSki cells assessed as accumulation of cells at G2/M phase at antiproliferative IC50 after 24 hrs by propidium iodide staining-based flow cytometric analysis (reference value: 16.59%); type: functional
Ca-Ski [22] = experiment: Induction of apoptosis in human CaSki cells assessed as formation of apoptotic bodies at antiproliferative IC50 by DAPI staining-based epifluorescence microscopic analysis; type: functional, cell-based
HeLa [23] = experiment: Cell cycle analysis in human HeLa cells assessed as accumulation of cells at G2/M phase at antiproliferative IC50 after 24 hrs by propidium iodide staining-based flow cytometric analysis (reference value: 17.19%); type: functional
Homo sapiens [24] = organism: Homo sapiens; experiment: Induction of apoptosis in human ViBo cells assessed as formation of apoptotic bodies at antiproliferative IC50 by DAPI staining-based epifluorescence microscopic analysis; type: functional, cell-based
[25] = Cell cycle analysis in human ViBo cells assessed as accumulation of cells at S phase at antiproliferative IC50 after 24 hrs by propidium iodide staining-based flow cytometric analysis (reference value: 11.67%); type: functional
Homo sapiens [26] = organism: Homo sapiens; experiment: Induction of apoptosis in human ViBo cells assessed as caspase3 activation at antiproliferative IC50 after 24 hrs by FITC/DAPI staining-based fluorescence microscopic analysis; type: functional, cell-based
Lymphocyte [27] = experiment: Induction of cell proliferation of enriched human lymphocytes assessed as cell proliferation level at 2.36 uM after 72 hrs by CFSE staining-based flow cytometric analysis (reference value: 73.36%)
HeLa [28] = experiment: Induction of apoptosis in human HeLa cells assessed as formation of apoptotic bodies at antiproliferative IC50 by DAPI staining-based epifluorescence microscopic analysis; type: functional, cell-based
Homo sapiens [29] = organism: Homo sapiens; experiment: Induction of apoptosis in human ViBo cells assessed as chromatin condensation at antiproliferative IC50 by DAPI staining-based epifluorescence microscopic analysis; type: functional, cell-based
HeLa [30] = experiment: Induction of apoptosis in human HeLa cells assessed as chromatin condensation at antiproliferative IC50 by DAPI staining-based epifluorescence microscopic analysis; type: functional, cell-based
HeLa [31] = experiment: Induction of apoptosis in human HeLa cells assessed as caspase3 activation at antiproliferative IC50 after 24 hrs by FITC/DAPI staining-based fluorescence microscopic analysis; type: functional, cell-based
HeLa [32] = experiment: Cell cycle analysis in human HeLa cells assessed as accumulation of cells at S phase at antiproliferative IC50 after 24 hrs by propidium iodide staining-based flow cytometric analysis (reference value: 10.37%); type: functional
Lymphocyte [33] = experiment: Cytotoxicity in enriched human lymphocytes assessed as induction of necrosis by measuring LDH release at 0.73 uM after 72 hrs by LDH release assay; type: cell-based
Ca-Ski [34] = experiment: Induction of apoptosis in human CaSki cells assessed as caspase3 activation at antiproliferative IC50 after 24 hrs by FITC/DAPI staining-based fluorescence microscopic analysis; type: functional, cell-based

COc1ccc(C(C[N+](=O)[O-])SC(=S)N2C[C@@H]3C[C@H]2CN3C(=O)OC(C)(C)C)cc1 (stereo partly drawn)
IC50 [1]: 2.64 µM | Activity (Homo sapiens [2]): Dose-dependent effect | Activity (HeLa [3]): Dose-dependent effect | IC50 (HeLa [3]): 5.29 µM | Activity (Ca-Ski [4]): 0% | Activity [5]: 5% | Activity (HeLa [6]): 0% | Activity (Ca-Ski [7]): Dose-dependent effect | IC50 (Ca-Ski [7]): 6.17 µM

CC(C)(C)OC(=O)N1C[C@@H]2C[C@H]1CN2C(=S)SC(C[N+](=O)[O-])c1ccc(Cl)cc1 (stereo partly drawn)
IC50 [1]: 2.4 µM | Activity (Homo sapiens [2]): Dose-dependent effect | Activity (HeLa [3]): Dose-dependent effect | IC50 (HeLa [3]): 5.67 µM | Activity (Ca-Ski [4]): 15% | Activity [5]: 12% | Activity (HeLa [6]): 4% | Activity (Ca-Ski [7]): Dose-dependent effect | IC50 (Ca-Ski [7]): 7.2 µM

CC(C)(C)OC(=O)N1C[C@@H]2C[C@H]1CN2C(=S)SC(C[N+](=O)[O-])c1ccc(F)cc1 (stereo partly drawn)
IC50 [1]: 6.56 µM | Activity (Homo sapiens [2]): Dose-dependent effect | Activity (HeLa [3]): Dose-dependent effect | IC50 (HeLa [3]): 7.92 µM | Activity (Ca-Ski [4]): 5% | Activity [5]: 8% | Activity (HeLa [6]): 2% | Activity (Ca-Ski [7]): Dose-dependent effect | IC50 (Ca-Ski [7]): 6.79 µM

CC(C)(C)OC(=O)N1CCN(C(=S)SC(C[N+](=O)[O-])c2ccccc2)CC1 (stereo not drawn)
IC50 [1]: 19.2 µM | IC50 (HeLa [3]): 31.6 µM | Activity (Ca-Ski [4]): 0% | Activity [5]: 0% | Activity (HeLa [6]): 0% | IC50 (Ca-Ski [7]): 29.4 µM

CC(C)(C)OC(=O)N1C[C@@H]2C[C@H]1CN2C(=S)SC(C[N+](=O)[O-])c1ccc(C(F)(F)F)cc1 (stereo partly drawn)
IC50 [1]: 7.32 µM | Activity (Homo sapiens [2]): Dose-dependent effect | Activity (HeLa [3]): Dose-dependent effect | IC50 (HeLa [3]): 6.1 µM | Activity (Ca-Ski [4]): 20% | Activity [5]: 0% | Activity (HeLa [6]): 5% | Activity (Ca-Ski [7]): Dose-dependent effect | IC50 (Ca-Ski [7]): 6.1 µM

CC[C@@]1(O)C(=O)OCc2c1cc1n(c2=O)Cc2cc3ccccc3nc2-1 [CAMPTOTHECIN]
IC50 [1]: 1.92 µM | IC50 (HeLa [3]): 0.94 µM | Activity (Ca-Ski [4]): 2% | Activity (Ca-Ski [8]): 62% | Activity [5]: 0% | Activity (HeLa [9]): 29% | Activity [10]: 48% | Activity (HeLa [6]): 3% | IC50 (Ca-Ski [7]): 1.8 µM

Cc1ccc(C(C[N+](=O)[O-])SC(=S)N2C[C@@H]3C[C@H]2CN3C(=O)OC(C)(C)C)cc1 (stereo partly drawn)
IC50 [1]: 3.19 µM | Activity (Homo sapiens [2]): Dose-dependent effect | Activity (HeLa [3]): Dose-dependent effect | IC50 (HeLa [3]): 5.52 µM | Activity (Ca-Ski [4]): 2% | Activity [5]: 5% | Activity (HeLa [6]): 0% | Activity (Ca-Ski [7]): Dose-dependent effect | IC50 (Ca-Ski [7]): 5.94 µM

CC(=O)O[C@H]1C(=O)[C@@]2(C)[C@H]([C@H](OC(=O)c3ccccc3)[C@]3(O)C[C@H](OC(=O)[C@H](O)[C@@H](NC(=O)c4ccccc4)c4ccccc4)C(C)=C1C3(C)C)[C@]1(OC(C)=O)CO[C@@H]1C[C@@H]2O [PACLITAXEL]
IC50 [1]: 1.59 µM | IC50 (Ca-Ski [7]): 2.9 µM

CC(C)(C)OC(=O)N1C[C@@H]2C[C@H]1CN2C(=S)SC(C[N+](=O)[O-])c1ccccc1 (stereo partly drawn)
Activity (Lymphocyte [11]): Non-Toxic | Activity (Lymphocyte [12]): 62.38% | Activity (Lymphocyte [13]): 64.02% | IC50 [1]: 0.73 µM | Activity (Homo sapiens [2]): Dose-dependent effect | Activity [14]: 20.48% | Activity (Ca-Ski [15]): 72.29% | Activity (HeLa [3]): Dose-dependent effect | IC50 (HeLa [3]): 0.989 µM | Activity [16]: 64.38% | Activity (HeLa [17]): 70.26% | Activity (Lymphocyte [18]): Non-Toxic | Activity (Ca-Ski [19]): 10.49% | Activity (Ca-Ski [20]): Active | Activity (Ca-Ski [4]): 2% | Activity (Ca-Ski [8]): 42% | Activity (Ca-Ski [21]): 14.35% | Activity (Ca-Ski [22]): Active | Activity [5]: 0% | Activity (HeLa [23]): 16.01% | Activity (HeLa [9]): 36% | Activity (Homo sapiens [24]): Active | Activity [25]: 10.05% | Activity (Homo sapiens [26]): Active | Activity (Lymphocyte [27]): 7.44% | Activity (HeLa [28]): Active | Activity [10]: 35% | Activity (HeLa [6]): 3% | Activity (Homo sapiens [29]): Active | Activity (Ca-Ski [7]): Dose-dependent effect | IC50 (Ca-Ski [7]): 2.36 µM | Activity (HeLa [30]): Active | Activity (HeLa [31]): Active | Activity (HeLa [32]): 10.68% | Activity (Lymphocyte [33]): Non-Toxic | Activity (Ca-Ski [34]): Active
